Drawing on the OligoGym collection, this text covers normalised inhibition (eCFP-eYFP dual reporter) for 35 substances.

Oligonucleotides are written 5' to 3', each unit as a sugar letter and its base; * is a phosphorothioate linkage, no mark a phosphodiester; rarer units and linkages stand in square brackets, end groups in braces. Plain capitals give the bases only. d = 2'-deoxy (DNA); r = 2'-OH (RNA)

The series deals with UBE2B. The experiment in a line: reporter assay of Huesken 2005. Particulars: siRNA.
Note: test concentration or dose not given here.

Regarding “sense rGrCrArCrCrArUrCrUrGrArArArArCrArArCrAdTdT / antisense rUrGrUrUrGrUrUrUrUrCrArGrArUrGrGrUrGrCdGdC”, the normalised inhibition (eCFP-eYFP dual reporter) is 74.2%.

Take “sense rArArUrArGrCrCrArGrGrCrArGrCrArCrArGrCdTdT / antisense rGrCrUrGrUrGrCrUrGrCrCrUrGrGrCrUrArUrUdGdG”: the normalised inhibition (eCFP-eYFP dual reporter) was found to be 51%.

“sense rCrArArArUrGrUrGrUrArUrGrCrUrGrArUrGrGdTdT / antisense rCrCrArUrCrArGrCrArUrArCrArCrArUrUrUrGdGdA” returned a normalised inhibition (eCFP-eYFP dual reporter) of 62.6%.

In the case of “sense rCrArGrUrGrGrCrGrCrArCrCrArUrCrUrGrArAdTdT / antisense rUrUrCrArGrArUrGrGrUrGrCrGrCrCrArCrUrGdAdC”, the normalised inhibition (eCFP-eYFP dual reporter) was determined as 61.8%.

Consider “sense rGrCrUrUrUrArUrCrArGrGrArArArArCrArArAdTdT / antisense rUrUrUrGrUrUrUrUrCrCrUrGrArUrArArArGrCdTdG”, for which the normalised inhibition (eCFP-eYFP dual reporter) was 80.4%.

Turning to “sense rArArArArGrArGrUrUrUrCrGrGrCrCrArUrUrGdTdT / antisense rCrArArUrGrGrCrCrGrArArArCrUrCrUrUrUrUdCdT”, the normalised inhibition (eCFP-eYFP dual reporter) was 49.2%.

“sense rUrArGrArUrArUrCrCrUrUrCrArGrArArUrCrGdTdT / antisense rCrGrArUrUrCrUrGrArArGrGrArUrArUrCrUrAdAdA” came in with a normalised inhibition (eCFP-eYFP dual reporter) of 47.9%.

“sense rArUrGrGrUrArGrCrArUrArUrGrUrUrUrArGrAdTdT / antisense rUrCrUrArArArCrArUrArUrGrCrUrArCrCrArUdCdA” displayed a normalised inhibition (eCFP-eYFP dual reporter) of 69.4%.

Substance “sense rCrCrArCrCrArArCrUrGrUrUrArGrGrUrUrUrUdTdT / antisense rArArArArCrCrUrArArCrArGrUrUrGrGrUrGrGdTdT” yielded a normalised inhibition (eCFP-eYFP dual reporter) of 69.7%.

Take “sense rGrArArCrCrGrArArUrCrCrUrArArCrArGrUrCdTdT / antisense rGrArCrUrGrUrUrArGrGrArUrUrCrGrGrUrUrCdAdT”: the normalised inhibition (eCFP-eYFP dual reporter) was found to be 72.7%.

The substance “sense rUrUrUrCrArArGrCrGrGrUrUrArCrArArGrArGdTdT / antisense rCrUrCrUrUrGrUrArArCrCrGrCrUrUrGrArArAdTdC” had a normalised inhibition (eCFP-eYFP dual reporter) of 45.5%.

For “sense rGrArGrArArUrArUrGrArGrArArArArGrArGrUdTdT / antisense rArCrUrCrUrUrUrUrCrUrCrArUrArUrUrCrUrCdGdT”, the normalised inhibition (eCFP-eYFP dual reporter) came to 83.6%.

In the case of “sense rCrArGrArArUrCrGrArUrGrGrArGrUrCrCrArAdTdT / antisense rUrUrGrGrArCrUrCrCrArUrCrGrArUrUrCrUrGdAdA”, the normalised inhibition (eCFP-eYFP dual reporter) was 86.3%.

In the case of “sense rArGrCrCrArGrGrCrArGrCrArCrArGrCrUrUrUdTdT / antisense rArArArGrCrUrGrUrGrCrUrGrCrCrUrGrGrCrUdAdT”, the normalised inhibition (eCFP-eYFP dual reporter) came out at 71.4%.

“sense rArArUrUrCrArGrUrCrUrCrUrGrCrUrGrGrArUdTdT / antisense rArUrCrCrArGrCrArGrArGrArCrUrGrArArUrUdGdA” had a normalised inhibition (eCFP-eYFP dual reporter) of 60.8%.

As for “sense rGrArArGrGrGrArCrArCrCrUrUrUrUrGrArArGdTdT / antisense rCrUrUrCrArArArArGrGrUrGrUrCrCrCrUrUrCdTdG”, the normalised inhibition (eCFP-eYFP dual reporter) stood at 79.8%.

In turn, “sense rArArCrArUrCrArUrGrCrArGrUrGrGrArArUrGdTdT / antisense rCrArUrUrCrCrArCrUrGrCrArUrGrArUrGrUrUdGdT” had a normalised inhibition (eCFP-eYFP dual reporter) of 55%.

In turn, “sense rCrArGrGrCrArGrCrArCrArGrCrUrUrUrArUrCdTdT / antisense rGrArUrArArArGrCrUrGrUrGrCrUrGrCrCrUrGdGdC” yielded a normalised inhibition (eCFP-eYFP dual reporter) of 75.1%.

Consider “sense rArGrCrCrArArUrArGrCrCrArGrGrCrArGrCrAdTdT / antisense rUrGrCrUrGrCrCrUrGrGrCrUrArUrUrGrGrCrUdGdG”, for which the normalised inhibition (eCFP-eYFP dual reporter) was determined as 75.9%.

The substance “sense rArGrGrGrArCrArCrCrUrUrUrUrGrArArGrArUdTdT / antisense rArUrCrUrUrCrArArArArGrGrUrGrUrCrCrCrUdTdC” showed a normalised inhibition (eCFP-eYFP dual reporter) of 78.1%.

Substance “sense rUrArUrCrCrArArArArUrGrUrUrUrCrArUrCrCdTdT / antisense rGrGrArUrGrArArArCrArUrUrUrUrGrGrArUrAdAdA” displayed a normalised inhibition (eCFP-eYFP dual reporter) of 48.2%.

For “sense rUrCrCrUrUrCrArGrArArUrCrGrArUrGrGrArGdTdT / antisense rCrUrCrCrArUrCrGrArUrUrCrUrGrArArGrGrAdTdA”, the normalised inhibition (eCFP-eYFP dual reporter) turned out to be 50%.

The substance “sense rGrArUrGrUrArUrCrUrUrCrUrArUrCrUrUrArAdTdT / antisense rUrUrArArGrArUrArGrArArGrArUrArCrArUrCdAdT” returned a normalised inhibition (eCFP-eYFP dual reporter) of 84.7%.

Substance “sense rUrArUrCrUrUrArArCrArUrCrArArUrUrCrArGdTdT / antisense rCrUrGrArArUrUrGrArUrGrUrUrArArGrArUrAdGdA” registered a normalised inhibition (eCFP-eYFP dual reporter) of 50.5%.

As for “sense rUrUrUrCrUrGrArArGrArArUrArUrCrCrArArAdTdT / antisense rUrUrUrGrGrArUrArUrUrCrUrUrCrArGrArArAdAdT”, the normalised inhibition (eCFP-eYFP dual reporter) amounted to 82.5%.

In turn, “sense rArArUrGrUrUrUrCrArUrCrCrArArArUrGrUrGdTdT / antisense rCrArCrArUrUrUrGrGrArUrGrArArArCrArUrUdTdT” returned a normalised inhibition (eCFP-eYFP dual reporter) of 63.5%.

Turning to “sense rUrGrGrArUrGrArArCrCrGrArArUrCrCrUrArAdTdT / antisense rUrUrArGrGrArUrUrCrGrGrUrUrCrArUrCrCrAdGdC”, the normalised inhibition (eCFP-eYFP dual reporter) came to 74.3%.

“sense rCrUrUrCrArGrArArUrCrGrArUrGrGrArGrUrCdTdT / antisense rGrArCrUrCrCrArUrCrGrArUrUrCrUrGrArArGdGdA” displayed a normalised inhibition (eCFP-eYFP dual reporter) of 72.2%.

Substance “sense rArUrGrCrArGrUrUrArUrArUrUrUrGrGrArCrCdTdT / antisense rGrGrUrCrCrArArArUrArUrArArCrUrGrCrArUdTdC” came in with a normalised inhibition (eCFP-eYFP dual reporter) of 53.2%.

The substance “sense rCrUrGrArArGrArArUrArUrCrCrArArArUrArAdTdT / antisense rUrUrArUrUrUrGrGrArUrArUrUrCrUrUrCrArGdAdA” yielded a normalised inhibition (eCFP-eYFP dual reporter) of 80.1%.

The substance “sense rGrUrArCrUrUrUrUrArArArCrUrArGrUrArArUdTdT / antisense rArUrUrArCrUrArGrUrUrUrArArArArGrUrArCdCdA” yielded a normalised inhibition (eCFP-eYFP dual reporter) of 86.2%.

“sense rGrArGrArArArArGrArGrUrUrUrCrGrGrCrCrAdTdT / antisense rUrGrGrCrCrGrArArArCrUrCrUrUrUrUrCrUrCdAdT” registered a normalised inhibition (eCFP-eYFP dual reporter) of 82.7%.

Consider “sense rArCrCrArUrCrUrGrArArArArCrArArCrArUrCdTdT / antisense rGrArUrGrUrUrGrUrUrUrUrCrArGrArUrGrGrUdGdC”, for which the normalised inhibition (eCFP-eYFP dual reporter) was 50.8%.

Turning to “sense rCrArGrGrArArArArCrArArArCrGrArGrArArUdTdT / antisense rArUrUrCrUrCrGrUrUrUrGrUrUrUrUrCrCrUrGdAdT”, the normalised inhibition (eCFP-eYFP dual reporter) turned out to be 84%.

Regarding “sense rUrArGrUrArArUrArGrArArUrUrUrUrCrUrGrAdTdT / antisense rUrCrArGrArArArArUrUrCrUrArUrUrArCrUrAdGdT”, the normalised inhibition (eCFP-eYFP dual reporter) is 72.3%.
